The text below walks through data of patent US8372866B2, “2-aryl and 2-heteroaryl 4H-1-benzopyran-4-one-6-amidino derivatives, new pharmacological agents for the treatment of arthritis, cancer and related pain” (Rottapharm S.p.A., priority 2008, dated 2013).

Counter-ions that a name gives are not always drawn.

Assay [1] addresses T1, recombinant human aggrecanase 1 (ADAMTS-4) (Homo sapiens, UniProt O75173).
T1 construct: ADAMTS-4 aminoacids F213-A579 with C-terminal tag; purchased Invitek GmbH, Berlin
T1 sequence (O75173 213-579): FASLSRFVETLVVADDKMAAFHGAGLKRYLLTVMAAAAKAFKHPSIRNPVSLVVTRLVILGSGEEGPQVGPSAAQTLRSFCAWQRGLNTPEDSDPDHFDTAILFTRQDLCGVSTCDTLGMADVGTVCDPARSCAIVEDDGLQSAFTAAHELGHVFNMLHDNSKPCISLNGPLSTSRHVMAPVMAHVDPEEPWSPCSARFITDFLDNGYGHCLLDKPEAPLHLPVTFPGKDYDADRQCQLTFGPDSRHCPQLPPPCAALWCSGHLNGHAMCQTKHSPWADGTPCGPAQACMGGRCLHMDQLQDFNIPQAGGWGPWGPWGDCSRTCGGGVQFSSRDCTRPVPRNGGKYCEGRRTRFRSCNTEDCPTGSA
The assay is described as follows: InviLISA Aggrecanase activity assay, aggrecanase 1. As to conditions: for inhibition at 10 µM: inhibitors tested at 10 μM final concentration. In kind it is biochemical. Here is the method: (§1) The InviLISA Aggrecanase activity assay (Invitek GmbH, Berlin) was used to screen and characterise aggrecanase inhibitors. The assay was carried out in two steps, according to Will et al. (Will H, Dettloff M, Bendzko P, Svenshnikov P, A Quantitative Assay for aggrecanase Activity; 2005, Journal of Biomolecular Techniques, 16 (4), 459-472). A recombinant fragment of human aggrecan interglobular domain (aggrecan-IGD; T331-G458) is first digested with aggrecanase. Proteolytic cleavage of the substrate releases an aggrecan peptide with the N-terminal sequence ARGSVIL (ARGSVIL-peptide), that was then quantified with two monoclonal anti-peptide antibodies (ELISA module). For precise calculation of product, ARGSVIL-peptide standard concentrations were run in parallel.
(§2) 1) Proteolysis of aggrecan-IGD by aggrecanase. Aggrecan-IGD was incubated with standard recombinant human aggrecanase 1 (ADAMTS-4 aminoacids F213-A579 with C-terminal tag) or standard recombinant human aggrecanase 2 (ADAMTS-5 aminoacids S262-G625 with C-terminal tag) in the absence (total enzymatic activity) or presence (modulated enzymatic activity) of inhibitors to be tested. Enzymes were pre-incubated with the inhibitors or the appropriate concentration of diluent as control (DMSO 0.25% final concentration in proteolysis), at 4° C. for 30 min prior to assaying their activity. Five microliters of mix enzyme-inhibitor were added to the substrate (0.1 μM final concentration) in a total volume of 100 μL and incubated for 15 minutes at 37° C. The reaction was terminated with EDTA-containing buffer. The inhibitors were tested at 10 μM final concentration and compounds achieving ≧50% inhibitory effect were evaluated for IC50 calculation, in a range generally extended from 0.1 to 10 μM final concentration.
(§3) 2) Aggrecan peptide ELISA. ARGSVIL-peptide standard, proteolytic digestion of Aggrecan-IGD with standard aggrecanases and test samples were incubated in microtiter wells pre-coated with anti-ARGSVIL-neoepitope antibody. ARGSVIL-peptide is bound to the coated antibody, while other components are removed by washing and aspiration. The bound ARGSVIL-peptide was detected with a second peroxidase-labelled antibody. Any excess of the conjugate was removed by washing and aspiration. The amount of peroxidase bound to different wells was determined in reactions with peroxidase substrate TMB. The reactions are stopped by addition of sulphuric acid solution and absorbance is read at 450 nm in a microtiter plate spectrophotometer.

Assay [2] deals with T2, recombinant human aggrecanase 2 (ADAMTS-5) (Homo sapiens, UniProt Q9UNA0).
T2 construct: ADAMTS-5 aminoacids S262-G625 with C-terminal tag; purchased Invitek GmbH, Berlin
T2 sequence (Q9UNA0 262-625): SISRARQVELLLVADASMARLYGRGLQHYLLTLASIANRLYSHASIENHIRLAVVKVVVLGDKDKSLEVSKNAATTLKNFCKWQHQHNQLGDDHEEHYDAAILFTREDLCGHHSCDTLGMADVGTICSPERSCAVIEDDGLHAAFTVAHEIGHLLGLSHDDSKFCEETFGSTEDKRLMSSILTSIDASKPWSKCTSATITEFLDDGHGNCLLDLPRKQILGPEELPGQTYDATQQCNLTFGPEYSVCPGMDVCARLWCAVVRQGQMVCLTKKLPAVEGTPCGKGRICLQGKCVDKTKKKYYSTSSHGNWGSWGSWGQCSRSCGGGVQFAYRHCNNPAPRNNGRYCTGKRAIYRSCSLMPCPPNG
The assay is described as follows: InviLISA Aggrecanase activity assay, aggrecanase 2. In kind it is biochemical. To be noted: for inhibition at 10 µM: inhibitors tested at 10 μM final concentration. Here is the method: as §1, §2, §3

In assay [3] the test system is mechanical hyperalgesia associated with STZ-induced diabetes. The assay is described as follows: STZ-induced diabetes mechanical hyperalgesia, model of neuropathic pain (Randall-Selitto). In kind it is in vivo, rat. As for the experimental part: Painful diabetic neuropathy is one of the most common complications of insulin-dependent diabetes in man; in particular, diabetes can be associated with neuropathic pain which fails to be treated by classical analgesics. Streptozotocin (STZ)-induced diabetes in the rat has been increasingly used as a model of painful diabetic neuropathy to assess the efficacies of potential analgesic agents (C. Courteix, Pain 1993, 53, 81-8). A representative compound of the invention was tested for efficacy in reducing mechanical hyperalgesia associated with STZ-induced diabetes in the rat, according to the experimental model as described by the literature. Diabetes was produced with the injection of a single dose (75 mg/Kg i.p.) of STZ. In the following four weeks after the induction of diabetes the clinical symptoms (weight, body and skin temperature, motility and hyperglycemia) progressively developed by the animals, are strictly monitored.
After four weeks, the scores obtained in diabetic rats to various pain stimuli (in particular mechanical stimuli) were greater than those in normal rats, indicating hyperalgesia. The hyperalgesia induced by diabetes was evaluated using the Randall-Selitto method as above described, and quantitated using the analgesimeter. Also in this case, the difference in the mechanical pain threshold between the basal value (generally 230-250 g) and the one tolerated by the animals treated with the drug, is defined as mechanical hyperalgesia. The compound of the invention was administered i.p. (solution, Tween 80, 10% in saline) at different doses, and mechanical hyperalgesia was measured at the reported time, as maximum percent effect (MPE) which represents the difference (%) in pain threshold between the animals treated with the drug and the controls that received only the vehicle, compared with the weight borne by naïf non-diabetic controls. A 100% protection means that the diabetic animals treated with the compound can tolerate the same stimulus (weight) as the naïf non-diabetic animals. MPE higher than 100% means that the diabetic animal treated with the compound can tolerate stimuli (weight) higher than the control non-diabetic animals (hypoalgesia).
In Table 4, the effect of a representative compound of formula (I), in the above described model of neuropathic pain, is compared with some known pharmacological standards used for the clinical treatment of this pathology. In particular, from the MPE data at 0.5 hrs, the doses yielding a protection of 50% (ED50) and 100% (ED100) have been calculated.

The test system of assay [4] is CFA-induced prolonged inflammation. The assay is described as follows: CFA model of chronic inflammatory pain (Randall-Selitto). It counts as in vivo, rat.
[5] abbreviates: 10 mg/Kg IP, NE = not effective.
The mark [6] stands for this setting: 30 mg/Kg IP, NE = not effective.
Setting [7] is: 100 mg/Kg IP, NE = not effective.
[8] abbreviates: 300 mg/Kg IP, NE = not effective.

In general, inhibition refers to the relative decrease from the control value, in per cent. As usually defined, the IC50 is the point on the concentration scale where inhibition reaches its midpoint. By ED50 is commonly meant the dose at which the effect has come halfway, by size or by number of responders.

For `CC(=N)Nc1ccc2oc(-c3ccc4c(c3)CCO4)c(O)c(=O)c2c1` [Example 15, 2-(dihydrobenzofuran-5-yl)-3-hydroxy-6-[(1-iminoethyl)amino]-4H-1-benzopyran-4-one hydrochloride], the inhibition at 10 µM in assay [1] amounted to 10%. Also, the IC50 in assay [2] came out at 15 µM.

As for `N=C(CC1CC1)Nc1ccc2oc(-c3ccc4c(c3)OCO4)c(O)c(=O)c2c1` [Example 18], the inhibition at 10 µM in assay [1] was 0%. In assay [2], the IC50 worked out at 4.3 µM.

For `N=C(CC1CC1)Nc1ccc2oc(-c3ccc(O)cc3)c(O)c(=O)c2c1` [Example 11, 2-(4-hydroxyphenyl-3-hydroxy-6-[(1-iminoethyl-2-cyclopropyl)amino]-4H-1-benzopyran-4-one hydrochloride], the inhibition at 10 µM in assay [1] came out at 30%; in assay [2], 40%.

Regarding `CN(C)CCC=C1c2ccccc2CCc2ccccc21` [Amitriptyline], in assay [3] (3 mg/Kg IP, NE = not effective), the “MPE 0.5 hrs” value was 44% and the “MPE 1.5 hrs” value was determined as 40%. In assay [3] (setting [5]), the “MPE 0.5 hrs” value is recorded as 68% and the “MPE 1.5 hrs” value came to 77%. In assay [3] (setting [6]), the “MPE 0.5 hrs” value is 65%, the “MPE 1.5 hrs” value worked out at 69% and the “MPE 3 hrs” value is 23%. Also, in assay [3] (Rattus norvegicus, IP, calculated from the MPE data at 0.5 hrs, NC = not calculable, read-out: ED50 0.5 hrs), the ED50 is 3.76 mg/kg.

`CC(=N)Nc1ccc2oc(-c3ccc(O)c(O)c3)c(O)c(=O)c2c1` [Example 10, 2-(3,4-dihydroxyphenyl)-3-hydroxy-6-[(1-iminoethyl)amino]-4H-1-benzopyran-4-one hydrochloride]: the IC50 in assay [1] came out at 0.61 µM; in assay [2], 3.5 µM.

For the molecule `COc1ccc(-c2oc3ccc(NC(=N)CO)cc3c(=O)c2O)cc1` [Example 13, 2-(4-methoxyphenyl)-3-hydroxy-6-[(1-iminoethyl-2-hydroxy)amino]-4H-1-benzopyran-4-one hydrochloride monohydrate], in assay [1], the inhibition at 10 µM was found to be 0%. Besides, the IC50 in assay [2] was 2.8 µM.

Turning to `COc1ccc(-c2oc3ccc(NC(C)=N)cc3c(=O)c2O)cn1` [Example 20, 2-(6-methoxypyridin-3-yl)-3-hydroxy-6-[(1-iminoethyl)amino]-4H-1-benzopyran-4-one], in assay [1], the inhibition at 10 µM came out at 0%. Besides, the IC50 in assay [2] stood at 2.2 µM.

Take `CC(=N)Nc1ccc2oc(-c3ccc(O)nc3)c(O)c(=O)c2c1` [Example 21, 2-(6-hydroxypyridin-3-yl)-3-hydroxy-6-[(1-iminoethyl)amino]-4H-1-benzopyran-4-one hydrochloride]: in assay [2], the inhibition at 10 µM was found to be 20%.

On to `COCCC(=N)Nc1ccc2oc(-c3ccc(-n4ccnc4)cc3)c(O)c(=O)c2c1` [Example 7], for which, in assay [1], the inhibition at 10 µM turned out to be 31%. For the same molecule, the IC50 in assay [2] was 2.4 µM.

Consider `CC(=N)Nc1ccc2oc(-c3ccc(-n4ccnc4)cc3)c(O)c(=O)c2c1` [Example 5, 2-[(4-imidazol-1-yl)-phenyl]-3-hydroxy-6-[(1-iminoethyl)amino]-4H-1-benzopyran-4-one hydrochloride], for which the inhibition at 10 µM in assay [1] was 30%. In assay [2], the IC50 came out at 0.87 µM.

Take `NCC1(CC(=O)O)CCCCC1` [Gabapentin]: the “MPE 0.5 hrs” value in assay [3] (setting [6]) was 39%; in assay [3] (setting [7]) it was 55%; in assay [3] (setting [8]), 47%. The results for the “MPE 1.5 hrs” value in assay [3] (setting [6]), in assay [3] (setting [7]) and in assay [3] (setting [8]) were 41%, 38% and 36%, respectively.

Consider `CC(=N)Nc1ccc2oc(-c3cccc(-n4ccnc4)c3)c(O)c(=O)c2c1` [Example 8, 2-[(3-(imidazol-1-yl)-phenyl]-3-hydroxy-6-[(1-iminoethyl)amino]-4H-1-benzopyran-4-one dihydrochloride], for which the IC50 in assay [2] came out at 10 µM.

For `CC(=N)Nc1ccc2oc(-c3ccc(S(C)(=O)=O)cc3)c(O)c(=O)c2c1` [Example 9, 2-(4-methansulfonylphenyl)-3-hydroxy-6-[(1-iminoethyl)amino]-4H-1-benzopyran-4-one hydrochloride], the inhibition at 10 µM in assay [1] came out at 20%. In addition, the IC50 in assay [2] stood at 11.5 µM.

As for `N=C(CC1CC1)Nc1ccc2oc(-c3ccc(-n4ccnc4)cc3)c(O)c(=O)c2c1` [Example 6, 2-[(4-imidazol-1-yl)-phenyl]-3-hydroxy-6-[(1-iminoethyl-2-cyclopropyl)amino]-4H-1-benzopyran-4-one dihydrochloride monohydrate], the IC50 in assay [1] was determined as 1.61 µM; in assay [2], 0.2 µM.

Consider `CN1C(C(=O)Nc2ccccn2)=C(O)c2ccccc2S1(=O)=O` [Piroxicam, reference compound], for which, in assay [4] (3 mg/Kg IP, NE = not effective), the “MPE 0.5 hrs” value worked out at 25% and the “MPE 1.5 hrs” value is 40%. In assay [4] (setting [5]), the “MPE 0.5 hrs” value amounted to 46%, the “MPE 1.5 hrs” value is given as 73% and the “MPE 3 hrs” value is on record as 62%. In assay [4] (setting [6]), the “MPE 0.5 hrs” value came out at 102%, the “MPE 1.5 hrs” value was found to be 111%, the “MPE 3 hrs” value is listed as 54% and the “MPE 6 hrs” value is reported as 24%. The “MPE 24 hrs” value in assay [4] (setting [6]) was determined as 38%. For the same molecule, the “ED100 0.5 hrs” value in assay [4] (IP, calculated from the MPE data at 0.5 hrs) is 34.33 mg/kg. In addition, in assay [4] (Rattus norvegicus, IP, calculated from the MPE data at 0.5 hrs, read-out: ED50 0.5 hrs), the ED50 was 7.65 mg/kg.

Consider `CC(=N)Nc1ccc2oc(-c3ccc(OCc4ccccc4)cc3)c(O)c(=O)c2c1` [Example 22, 2-[(4-benzyloxy-phenyl]-3-hydroxy-6-[(1-iminoethyl)amino]-4H-1-benzopyran-4-one hydrochloride], for which the inhibition at 10 µM in assay [2] was 34%.
